“Also recorded” adds a separate entry of the source.
Experiments:
[1] = test system: CCHFV; assay: cells; type: cell-based
[2] = test system: LASV; assay: cells; type: cell-based
[3] = in vitro; conditions: human
[4] = test system: (AG)15 construct; assay: cells; type: cell-based; conditions: read-out: inhibited translation
[5] = test system: (AC)15 sequence; type: cell-based
[6] = test system: ZIKV; assay: Antiviral activity in ZIKV-infected A549 cells; type: cell-based; conditions: ZIKV RNA, MOI 0.1, 24 hpi
[7] = Cell toxicity in murine hepatocytes; conditions: mouse, murine hepatocytes (mock infected)
[8] = test system: HEVgt3c-G4C and HEVgt3c-G4CC6A; type: cell-based, HEV
[9] = test system: tumor growth; conditions: xenograft mouse model ref Wolfe et al., 2014; cited from earlier work
[10] = test system: VP35-HP+(AG)5; type: cell-based, EBOV
[11] = test system: 5′-UTR of HCoV-229E; type: cell-based
[12] = test system: HCoV-229E; type: cell-based
[13] = test system: 5′-UTR of MERS-CoV; type: cell-based
[14] = test system: persistently HEV-infected A549 cells; assay: Cell viability of persistently HEV-infected A549 cells; conditions: 2 nM, 72 h
[15] = test system: HEVgt3c-Purine 5′-UTR; type: cell-based, HEV
[16] = test system: 5′-UTR of EBOV VP35; type: cell-based
[17] = test system: 5′-terminal hairpin of VP35 (VP35-HP only); type: cell-based, EBOV
[18] = test system: 5′-UTR of HEV (HEVgt3c); type: cell-based; conditions: 10 nM
[19] = test system: HCoV-229E; assay: microbe, parasite or virus in culture; type: cell-based; conditions: Human coronavirus 229E, MRC5
[20] = test system: HEV; type: cell-based
[21] = test system: A549 cells; conditions: human
[22] = test system: 5′-UTR of EBOV VP30 mRNA; type: cell-based
[23] = test system: MRC-5 cells
[24] = 2014, cited from earlier work

**Q.** Which “virus titer drop, CCHFV” value [1] does the source give for `COC(=O)[C@H]1[C@@H](O)[C@@]2(O)c3c(OC)cc(O[C@@H]4O[C@@H]([C@H](O)CO)CO[C@H]4OC)cc3O[C@@]2(c2ccc(OC)cc2)[C@@H]1c1ccccc1` [Silvestrol] here?
**A.** 3 log

**Q.** And the EC50 ([1]; Mus musculus, Hepatocyte)?
**A.** 28.5 nM

**Q.** What about the “virus titer drop, LASV” value [2] of the same molecule?
**A.** ~ 4 log

**Q.** What about the EC50 ([2]; Mus musculus, Hepatocyte) of the same molecule?
**A.** 50.7 nM

**Q.** And the CC50 [3]?
**A.** > 10000 nM

**Q.** What about the inhibition at 0.01 µM [4] of the same molecule?
**A.** ~55%

**Q.** What about the “induction of luciferase activity” value [5] of the same molecule?
**A.** 1.5 fold

**Q.** And the EC50 [6]?
**A.** 1.08 nM

**Q.** And the CC50 [7]?
**A.** > 5000 nM

**Q.** What about the inhibitory effect [8] of the same molecule?
**A.** gradual loss of the inhibitory effect

**Q.** And the tumor growth [9]?
**A.** reduced tumor growth efficiently

**Q.** What about the “effect on reporter activity” value [10] of the same molecule?
**A.** slightly increased translation inhibition

**Q.** And the “sensitivity to translation inhibition” value [11]?
**A.** similarly sensitive

**Q.** And the “virus titer in the supernatant reduced by” value [12]?
**A.** similar

**Q.** And the infectious virus production ([12]; 100 nM)?
**A.** undetectable levels

**Q.** What about the “sensitivity to translation inhibition” value [13] of the same molecule?
**A.** similarly sensitive

**Q.** What about the cytotoxicity [14] of the same molecule?
**A.** some cytotoxicity

**Q.** What about the sensitivity to treatment [15] of the same molecule?
**A.** sensitive

**Q.** What about the “sensitivity to translation inhibition” value [16] of the same molecule?
**A.** sensitive

**Q.** And the “effect on reporter activity” value [17]?
**A.** sufficient to mediate translation inhibition

**Q.** And the luciferase activity [18]?
**A.** reduced luciferase activity

**Q.** What about the EC50 [19] of the same molecule?
**A.** 3 nM

**Q.** And the “antiviral effect against HEV (extracellular viral RNA levels)” value [20]?
**A.** confirmed the antiviral activity; also recorded: reduce the levels of extracellular HEV RNA

**Q.** What about the CC50 [21] of the same molecule?
**A.** 9.42 nM

**Q.** What about the “sensitivity to translation inhibition” value [22] of the same molecule?
**A.** similarly sensitive

**Q.** What does the source list for CR-31-B?
**A.** cytotoxic effects [23]: no major cytotoxic effects; tumor growth [9]: reduced tumor growth efficiently; body weight or the number of blood cells ([24]; mice ref Wolfe et al.): did not change; toxicity in the gastrointestinal tract ([24]; mice ref Wolfe et al.): no toxicity could be observed; serum levels of aminotransferases (ALT and AST), albumin, total bilirubin, creatinine ([24]; two weeks after cessation of treatment ref Wolfe et al.): not significantly changed; cytotoxicity [14]: not cytotoxic

— article PMC7114339 (Antiviral Research, 2020)
